Paper PMC5218480 (PLoS ONE, 2017)

System: MV-4-11 cells
Test: Gene expression microarray analysis (Affymetrix PrimeView) and GSEA
Format: cell-based, human
Parameters: RFU PODN (11730768_x_at) / Fold change /veh PODN (11730768_x_at) / RFU LINC00158 (11744669_a_at) / Fold change /veh LINC00158 (11744669_a_at) / RFU DUSP10 (11751237_a_at) / Fold change /veh DUSP10 (11751237_a_at) / RFU ID3 (11757404_x_at) / Fold change /veh ID3 (11757404_x_at) / RFU PLEKHG5 (11737974_s_at) / Fold change /veh PLEKHG5 (11737974_s_at) / RFU LRRC4B (11730491_at) / Fold change /veh LRRC4B (11730491_at) / RFU GIMAP4 (11747438_a_at) / Fold change /veh GIMAP4 (11747438_a_at) / RFU KRT8 (11758183_x_at) / Fold change /veh KRT8 (11758183_x_at) / RFU CNN1 (11734310_a_at) / Fold change /veh CNN1 (11734310_a_at) / RFU VPS37D (11726825_at) / Fold change /veh VPS37D (11726825_at) / RFU C10orf10 (11716522_x_at) / Fold change /veh C10orf10 (11716522_x_at) / RFU KIR2DL2 /// KIR2DL4 /// KIR2DL5A /// KIR2DL5B /// KIR2DS1 /// KIR2DS2 /// KIR2DS3 /// KIR2DS4 /// KIR3DL3 /// KIR3DL3 /// KIR3DS1 (11738374_at) / Fold change /veh KIR2DL2 /// KIR2DL4 /// KIR2DL5A /// KIR2DL5B /// KIR2DS1 /// KIR2DS2 /// KIR2DS3 /// KIR2DS4 /// KIR3DL3 /// KIR3DL3 /// KIR3DS1 (11738374_at) / RFU C1QL1 (11718748_at) / Fold change /veh C1QL1 (11718748_at) / RFU TMPRSS4 (11747572_a_at) / Fold change /veh TMPRSS4 (11747572_a_at) / RFU HAMP (11756126_x_at) / Fold change /veh HAMP (11756126_x_at) / RFU RNFT2 (11725882_a_at) / Fold change /veh RNFT2 (11725882_a_at) / RFU NR4A2 (11747474_a_at) / Fold change /veh NR4A2 (11747474_a_at) / RFU ABCC12 (11746883_a_at) / Fold change /veh ABCC12 (11746883_a_at) / RFU TMEM136 (11760407_x_at) / Fold change /veh TMEM136 (11760407_x_at) / RFU CLDN22 /// WWC2 (11732394_at) / Fold change /veh CLDN22 /// WWC2 (11732394_at) / RFU HLA-DPB1 (11760878_x_at) / Fold change /veh HLA-DPB1 (11760878_x_at) / RFU SPINT1 (11716480_a_at) / Fold change /veh SPINT1 (11716480_a_at) / RFU GAP43 (11754022_s_at) / Fold change /veh GAP43 (11754022_s_at) / RFU A4GNT (11735810_at) / Fold change /veh A4GNT (11735810_at) / RFU PRB3 (11715151_x_at) / Fold change /veh PRB3 (11715151_x_at) / RFU TUBB4B (11761932_at) / Fold change /veh TUBB4B (11761932_at) / RFU CAPN14 (11732068_a_at) / Fold change /veh CAPN14 (11732068_a_at) / RFU TMCC2 (11721928_a_at) / Fold change /veh TMCC2 (11721928_a_at) / RFU IRGQ (11745062_a_at) / Fold change /veh IRGQ (11745062_a_at) / RFU FAM174B (11720279_a_at) / Fold change /veh FAM174B (11720279_a_at) / RFU TMPRSS4 (11748680_a_at) / Fold change /veh TMPRSS4 (11748680_a_at) / RFU FAM212B (11763350_a_at) / Fold change /veh FAM212B (11763350_a_at) / RFU PLEKHG5 (11743358_a_at) / Fold change /veh PLEKHG5 (11743358_a_at) / RFU ZSCAN30 (11745921_a_at) / Fold change /veh ZSCAN30 (11745921_a_at) / RFU CMKLR1 (11741424_a_at) / Fold change /veh CMKLR1 (11741424_a_at) / RFU LOC101060620 /// MAPK8IP1 (11723275_at) / Fold change /veh LOC101060620 /// MAPK8IP1 (11723275_at) / RFU SPTSSB (11747773_x_at) / Fold change /veh SPTSSB (11747773_x_at) / RFU PRSS12 (11739890_at) / Fold change /veh PRSS12 (11739890_at) / RFU BIN1 (11741810_x_at) / Fold change /veh BIN1 (11741810_x_at) / RFU WNT11 (11732464_a_at) / Fold change /veh WNT11 (11732464_a_at) / RFU C10orf10 (11716521_a_at) / Fold change /veh C10orf10 (11716521_a_at) / RFU C5orf56 (11738089_at) / Fold change /veh C5orf56 (11738089_at) / RFU CYB561 (11721691_x_at) / Fold change /veh CYB561 (11721691_x_at) / RFU ANKRD19P (11752326_a_at) / Fold change /veh ANKRD19P (11752326_a_at) / RFU OR2T12 /// OR2T33 /// OR2T8 (11738714_s_at) / Fold change /veh OR2T12 /// OR2T33 /// OR2T8 (11738714_s_at) / RFU VCAN (11748164_a_at) / Fold change /veh VCAN (11748164_a_at) / RFU JSRP1 (11732532_at) / Fold change /veh JSRP1 (11732532_at) / RFU KRTAP10-11 (11738290_x_at) / Fold change /veh KRTAP10-11 (11738290_x_at) / RFU MYO3A (11730013_a_at) / Fold change /veh MYO3A (11730013_a_at) / RFU EBF3 (11725865_a_at) / Fold change /veh EBF3 (11725865_a_at) / RFU CAMK2N1 (11719241_x_at) / Fold change /veh CAMK2N1 (11719241_x_at) / RFU C5orf56 (11738088_a_at) / Fold change /veh C5orf56 (11738088_a_at) / RFU OLFML3 (11715873_a_at) / Fold change /veh OLFML3 (11715873_a_at) / RFU LOC100653217 /// NTM (11731650_a_at) / Fold change /veh LOC100653217 /// NTM (11731650_a_at) / RFU MAPK11 (11762145_a_at) / Fold change /veh MAPK11 (11762145_a_at) / RFU FIZ1 (11724087_x_at) / Fold change /veh FIZ1 (11724087_x_at) / RFU OASL (11726364_x_at) / Fold change /veh OASL (11726364_x_at) / RFU SOX15 (11748057_x_at) / Fold change /veh SOX15 (11748057_x_at) / RFU CD79A (11719716_a_at) / Fold change /veh CD79A (11719716_a_at) / RFU HIST1H1D (11736915_at) / Fold change /veh HIST1H1D (11736915_at) / RFU CASKIN2 (11723855_a_at) / Fold change /veh CASKIN2 (11723855_a_at) / RFU LOC730098 (11760151_x_at) / Fold change /veh LOC730098 (11760151_x_at) / RFU OR4N2 (11742367_at) / Fold change /veh OR4N2 (11742367_at) / RFU PRRT2 (11749266_a_at) / Fold change /veh PRRT2 (11749266_a_at) / RFU SNX32 (11753110_a_at) / Fold change /veh SNX32 (11753110_a_at) / RFU CDHR5 (11726645_a_at) / Fold change /veh CDHR5 (11726645_a_at) / RFU RCAN1 (11760418_a_at) / Fold change /veh RCAN1 (11760418_a_at) / RFU FAM167A (11723789_a_at) / Fold change /veh FAM167A (11723789_a_at) / RFU FAM26E (11764081_at) / Fold change /veh FAM26E (11764081_at) / RFU ISYNA1 (11749810_s_at) / Fold change /veh ISYNA1 (11749810_s_at) / RFU ACY1 (11761880_at) / Fold change /veh ACY1 (11761880_at) / RFU 11764098_at / Fold change /veh 11764098_at / RFU SAMD14 (11745864_x_at) / Fold change /veh SAMD14 (11745864_x_at) / RFU NPB (11741838_a_at) / Fold change /veh NPB (11741838_a_at) / RFU TMPRSS6 (11731388_a_at) / Fold change /veh TMPRSS6 (11731388_a_at) / RFU KRTAP10-2 (11738614_at) / Fold change /veh KRTAP10-2 (11738614_at) / RFU ARHGAP8 /// PRR5-ARHGAP8 (11727945_x_at) / Fold change /veh ARHGAP8 /// PRR5-ARHGAP8 (11727945_x_at) / RFU KRTAP5-7 /// NADSYN1 (11734609_at) / Fold change /veh KRTAP5-7 /// NADSYN1 (11734609_at) / RFU RASL12 (11751679_a_at) / Fold change /veh RASL12 (11751679_a_at) / RFU CDKN2B (11736163_a_at) / Fold change /veh CDKN2B (11736163_a_at) / RFU PRF1 (11729649_at) / Fold change /veh PRF1 (11729649_at) / RFU, ZNF638 /// ZNF638-IT1 / Fold change vs veh, ZNF638 /// ZNF638-IT1 / RFU, PANK3 / Fold change vs veh, PANK3 / RFU, SH3YL1 / Fold change vs veh, SH3YL1 / RFU, ZEB2 / Fold change vs veh, ZEB2 / RFU, NRIP1 / Fold change vs veh, NRIP1 / RFU, PTTG1IP / Fold change vs veh, PTTG1IP / RFU, CAPN2 / Fold change vs veh, CAPN2 / RFU, MED14 / Fold change vs veh, MED14 / RFU, SNORA58 / Fold change vs veh, SNORA58 / RFU, C1orf63 / Fold change vs veh, C1orf63 / RFU, LRRFIP1 / Fold change vs veh, LRRFIP1 / RFU, NDUFAF7 / Fold change vs veh, NDUFAF7 / RFU, SLC12A2 / Fold change vs veh, SLC12A2 / RFU, IBTK / Fold change vs veh, IBTK / RFU, ESF1 / Fold change vs veh, ESF1 / Fold change vs veh, TMEM50B / RFU, TAOK1 / Fold change vs veh, TAOK1 / RFU, ACBD3 / Fold change vs veh, ACBD3 / RFU, TMA16 / Fold change vs veh, TMA16 / RFU, RWDD3 / Fold change vs veh, RWDD3 / RFU, BCAT1 / Fold change vs veh, BCAT1 / RFU, EDEM3 / Fold change vs veh, EDEM3 / RFU, TMEM33 / Fold change vs veh, TMEM33 / RFU, WDR75 / Fold change vs veh, WDR75 / RFU, AHCTF1 / Fold change vs veh, AHCTF1 / RFU, TFRC / Fold change vs veh, TFRC / RFU, ZDHHC17 / Fold change vs veh, ZDHHC17 / RFU, NOM1 / Fold change vs veh, NOM1 / RFU, ARL8B / Fold change vs veh, ARL8B / RFU, ZBTB11 / Fold change vs veh, ZBTB11 / RFU, TAMM41 / Fold change vs veh, TAMM41 / RFU, KIAA1704 /// LOC100996395 / Fold change vs veh, KIAA1704 /// LOC100996395 / RFU, ING1 / Fold change vs veh, ING1 / RFU, TRMT61B / Fold change vs veh, TRMT61B / RFU, FUBP3 / Fold change vs veh, FUBP3 / RFU, TP53 / Fold change vs veh, TP53 / RFU, TNKS2 / Fold change vs veh, TNKS2 / RFU, ZFP14 / Fold change vs veh, ZFP14 / RFU, ACTR2 / Fold change vs veh, ACTR2 / RFU, PPP3R1 / Fold change vs veh, PPP3R1 / RFU, PIK3R1 / Fold change vs veh, PIK3R1 / RFU, HNRNPA1 / Fold change vs veh, HNRNPA1 / RFU, RNF170 / Fold change vs veh, RNF170 / RFU, ZNF28 / Fold change vs veh, ZNF28 / RFU, RNGTT / Fold change vs veh, RNGTT / RFU, OGT / Fold change vs veh, OGT / RFU, BRD1 / Fold change vs veh, BRD1 / RFU, MARS / Fold change vs veh, MARS / RFU, ZNF655 / Fold change vs veh, ZNF655 / RFU, FAHD1 / Fold change vs veh, FAHD1 / RFU, BDP1 / Fold change vs veh, BDP1 / RFU, LRRCC1 / Fold change vs veh, LRRCC1 / RFU, ARID1A / Fold change vs veh, ARID1A / RFU, ZNF146 / Fold change vs veh, ZNF146 / RFU, ZNF330 / Fold change vs veh, ZNF330 / RFU, GPN3 / Fold change vs veh, GPN3 / RFU, C9orf123 / Fold change vs veh, C9orf123 / RFU, N4BP2L2 / Fold change vs veh, N4BP2L2 / RFU, ARFIP1 / Fold change vs veh, ARFIP1 / RFU, FAM179B / Fold change vs veh, FAM179B / RFU, BCL10 / Fold change vs veh, BCL10 / RFU, UHRF1BP1L / Fold change vs veh, UHRF1BP1L / RFU, BET1 / Fold change vs veh, BET1 / RFU, CNOT2 / Fold change vs veh, CNOT2 / RFU, ZNF268 / Fold change vs veh, ZNF268 / Fold change vs veh, ZNF507 / RFU, DGCR2 / Fold change vs veh, DGCR2 / RFU, WDSUB1 / Fold change vs veh, WDSUB1 / Fold change vs veh, HSP90B1 /// MIR3652 / RFU, ADSS / Fold change vs veh, ADSS / RFU, GK / Fold change vs veh, GK / RFU, ZNF148 / Fold change vs veh, ZNF148 / RFU, TAF9 / Fold change vs veh, TAF9 / RFU, SLC1A5 / Fold change vs veh, SLC1A5 / RFU, SLMO2 / Fold change vs veh, SLMO2 / RFU, ABCC4 / Fold change vs veh, ABCC4 / RFU, LOC101060439 /// RAP1B / Fold change vs veh, LOC101060439 /// RAP1B / RFU, RFX7 / Fold change vs veh, RFX7 / RFU, GTPBP10 / Fold change vs veh, GTPBP10 / RFU, CNEP1R1 / Fold change vs veh, CNEP1R1 / RFU, BIVM-ERCC5 /// ERCC5 / Fold change vs veh, BIVM-ERCC5 /// ERCC5 / RFU, ILF3 / Fold change vs veh, ILF3 / RFU 11762660_at / Fold change /veh 11762660_at / RFU VCAN (11757783_s_at) / Fold change /veh VCAN (11757783_s_at) / RFU DDX43 (11728927_at) / Fold change /veh DDX43 (11728927_at) / RFU KRT8 (11758188_x_at) / Fold change /veh KRT8 (11758188_x_at) / RFU NKD1 (11759106_at) / Fold change /veh NKD1 (11759106_at) / RFU SRD5A1 (11742802_a_at) / Fold change /veh SRD5A1 (11742802_a_at) / RFU TPSAB1 /// TPSB2 (11721975_s_at) / Fold change /veh TPSAB1 /// TPSB2 (11721975_s_at) / RFU GSTM3 (11746129_a_at) / Fold change /veh GSTM3 (11746129_a_at) / RFU IL23R (11737362_x_at) / Fold change /veh IL23R (11737362_x_at) / RFU TMEM51 (11727254_a_at) / Fold change /veh TMEM51 (11727254_a_at) / RFU PIWIL2 (11732686_x_at) / Fold change /veh PIWIL2 (11732686_x_at) / RFU ORM1 (11744905_x_at) / Fold change /veh ORM1 (11744905_x_at) / RFU CCDC152 (11743942_at) / Fold change /veh CCDC152 (11743942_at) / RFU ECM1 (11717891_a_at) / Fold change /veh ECM1 (11717891_a_at) / RFU IL23R (11748794_a_at) / Fold change /veh IL23R (11748794_a_at) / RFU TNFAIP8L3 (11732012_x_at) / Fold change /veh TNFAIP8L3 (11732012_x_at) / RFU MBOAT4 (11741988_at) / Fold change /veh MBOAT4 (11741988_at) / RFU 11764193_at / Fold change /veh 11764193_at / RFU TMEM53 (11763286_at) / Fold change /veh TMEM53 (11763286_at) / RFU MAGEB2 (11727129_at) / Fold change /veh MAGEB2 (11727129_at) / RFU TMEM200A (11744735_a_at) / Fold change /veh TMEM200A (11744735_a_at) / RFU CCDC152 (11751479_a_at) / Fold change /veh CCDC152 (11751479_a_at) / RFU FAM211A (11726209_a_at) / Fold change /veh FAM211A (11726209_a_at) / RFU RGS16 (11746705_a_at) / Fold change /veh RGS16 (11746705_a_at) / RFU VCAN (11755009_s_at) / Fold change /veh VCAN (11755009_s_at) / RFU RHOB (11743442_s_at) / Fold change /veh RHOB (11743442_s_at) / RFU RGS16 (11720943_a_at) / Fold change /veh RGS16 (11720943_a_at) / RFU RGS16 (11720944_at) / Fold change /veh RGS16 (11720944_at) / RFU, VPS4B / Fold change vs veh, VPS4B / RFU, CREB1 / Fold change vs veh, CREB1 / RFU, DNAJC13 / Fold change vs veh, DNAJC13 / RFU, GNAQ / Fold change vs veh, GNAQ / RFU, CDK5R1 / Fold change vs veh, CDK5R1 / RFU, ZRANB3 / Fold change vs veh, ZRANB3 / RFU, CUL4A / Fold change vs veh, CUL4A / RFU, CCNY / Fold change vs veh, CCNY / RFU, UFL1 / Fold change vs veh, UFL1 / RFU, COG3 / Fold change vs veh, COG3 / RFU, DIAPH2 / Fold change vs veh, DIAPH2 / RFU, SKA2 / Fold change vs veh, SKA2 / RFU, AFF3 / Fold change vs veh, AFF3 / RFU, LMF1 / Fold change vs veh, LMF1 / RFU, IPO11 / Fold change vs veh, IPO11 / RFU, DFFB / Fold change vs veh, DFFB / RFU, FOXP1 / Fold change vs veh, FOXP1 / RFU, CARD8 / Fold change vs veh, CARD8 / RFU, STRN3 / Fold change vs veh, STRN3 / RFU, ADK / Fold change vs veh, ADK / RFU, RASSF2 / Fold change vs veh, RASSF2 / RFU, WIPF1 / Fold change vs veh, WIPF1 / RFU, LARP1B / Fold change vs veh, LARP1B / RFU, RASA1 / Fold change vs veh, RASA1 / RFU, RB1 / Fold change vs veh, RB1 / RFU, PPFIA1 / Fold change vs veh, PPFIA1 / RFU, MAT2A / Fold change vs veh, MAT2A / RFU, CCT5 / Fold change vs veh, CCT5 / RFU, WDR92 / Fold change vs veh, WDR92 / RFU, CUX1 / Fold change vs veh, CUX1 / RFU, TTC7A / Fold change vs veh, TTC7A / RFU, TMEM135 / Fold change vs veh, TMEM135 / RFU, DEPTOR / Fold change vs veh, DEPTOR / RFU, CPM / Fold change vs veh, CPM / RFU, DNAJB6 / Fold change vs veh, DNAJB6 / RFU, CACNA2D3 / Fold change vs veh, CACNA2D3 / RFU, DTX4 / Fold change vs veh, DTX4 / RFU, TFCP2 / Fold change vs veh, TFCP2 / RFU, GMCL1 /// GMCL1P1 / Fold change vs veh, GMCL1 /// GMCL1P1 / RFU, AEBP2 / Fold change vs veh, AEBP2 / RFU, SNHG1 /// SNORD22 /// SNORD25 /// SNORD26 /// SNORD27 /// SNORD28 /// SNORD29 /// SNORD31 / Fold change vs veh, SNHG1 /// SNORD22 /// SNORD25 /// SNORD26 /// SNORD27 /// SNORD28 /// SNORD29 /// SNORD31 / Fold change (Aza/veh), C12orf56 (ProbeSet 11735607_a_at) / Fold change (ACY-1035/veh), C12orf56 (ProbeSet 11735607_a_at) / Fold change (Aza/veh), FGFR1OP (ProbeSet 11751329_s_at) / Fold change (ACY-1035/veh), FGFR1OP (ProbeSet 11751329_s_at) / Fold change (Aza/veh), VPS36 (ProbeSet 11739960_a_at) / Fold change (ACY-1035/veh), VPS36 (ProbeSet 11739960_a_at) / RFU SYPL1 (11715823_x_at) / Fold change /veh SYPL1 (11715823_x_at) / RFU IGFBP7 (11715501_s_at) / Fold change /veh IGFBP7 (11715501_s_at) / RFU REEP3 (11722064_at) / Fold change /veh REEP3 (11722064_at) / RFU IGLL1 (11728026_x_at) / Fold change /veh IGLL1 (11728026_x_at): dose or concentration left out as unconfirmed
Details: MV-4-11 cells, 48 hours

## Nc1ncn([C@@H]2O[C@H](CO)[C@@H](O)[C@H]2O)c(=O)n1 [azacitidine]
  RFU GIMAP4 (11747438_a_at): 6.50 RFU
